In patent US8748610B2, “Compounds as TRPV1 antagonists, pharmaceutical compositions and medical uses thereof” (FL Therapeutics LLC, priority 2009, dated 2014):

molecular target: T1, recombinant human TRPV1 (Homo sapiens, UniProt Q8NER1); test: FLIPR based Ca2+ influx assay, capsaicin-induced, TRPV1.CHO cells; assay type: cell-based; conditions: CHO-K1 cells stably expressing recombinant human TRPV1; 30 nM capsaicin (~EC80); 15 mins pre-incubation
T1 construct: expressed in transfected cells
Procedure: The functional activity of compounds at the TRPV1 receptor was determined using a Molecular Devices FLIPR based Ca^2+ influx assay, employing a Ca^2+ sensitive fluorescent dye and a CHO-K1 cell line, stably expressing recombinant human TRPV1, under the control of a CMV promoter (TRPV1.CHO cells). TRPV1.CHO cells were routinely maintained at 37° C./5% CO2 in normal growth medium (Dulbecco's Modified Eagles medium (DMEM/NUT.MDC.F-12 GLUTAMAX-1 (1:1) with PYRIDOXINE) supplemented with 10% fetalclone II serum and 0.4 mg/ml G418, (all Invitrogen).
Test compounds were prepared as 10 mM stock solution in DMSO and tested for activity over several log units (ranging […]-100 pM). Serial dilutions (half-log dose response) were prepared in 100% DMSO with further dilutions in aqueous assay buffer to final assay concentration for IC50 determination (1% DMSO final).
TRPV1.CHO cells were seeded (10,000 cells/well) in a 384 clear bottom plate (Costar) 24 hr prior to assay. […]
TRPV1 responses were assessed following addition, in the FLIPR, of 12.5 μl/well of test compound (to give appropriate final concentration) for 15 mins time followed by 12.5 μl/well of 120 nM capsaicin (agonist) in TRPV1 buffer to give a final concentration of capsaicin of 30 nM (˜EC80 concentration). Ca^2+ influx was assessed by measurement of fluorescence. Baseline fluorescence responses were measured for approximately 10 s prior to addition of capsaicin. Increases in fluorescence emission following capsaicin addition were measured for a further 110 s. Responses were recorded as Max-Min fluorescence. Antagonist induced inhibition of TRPV1 mediated increases in intracellular [Ca^2+] was assessed relative to wells on the same plate to which capsaicin was added in the absence of antagonist (i.e pre-incubation in buffer alone).

T1 sequence (Q8NER1 whole entry): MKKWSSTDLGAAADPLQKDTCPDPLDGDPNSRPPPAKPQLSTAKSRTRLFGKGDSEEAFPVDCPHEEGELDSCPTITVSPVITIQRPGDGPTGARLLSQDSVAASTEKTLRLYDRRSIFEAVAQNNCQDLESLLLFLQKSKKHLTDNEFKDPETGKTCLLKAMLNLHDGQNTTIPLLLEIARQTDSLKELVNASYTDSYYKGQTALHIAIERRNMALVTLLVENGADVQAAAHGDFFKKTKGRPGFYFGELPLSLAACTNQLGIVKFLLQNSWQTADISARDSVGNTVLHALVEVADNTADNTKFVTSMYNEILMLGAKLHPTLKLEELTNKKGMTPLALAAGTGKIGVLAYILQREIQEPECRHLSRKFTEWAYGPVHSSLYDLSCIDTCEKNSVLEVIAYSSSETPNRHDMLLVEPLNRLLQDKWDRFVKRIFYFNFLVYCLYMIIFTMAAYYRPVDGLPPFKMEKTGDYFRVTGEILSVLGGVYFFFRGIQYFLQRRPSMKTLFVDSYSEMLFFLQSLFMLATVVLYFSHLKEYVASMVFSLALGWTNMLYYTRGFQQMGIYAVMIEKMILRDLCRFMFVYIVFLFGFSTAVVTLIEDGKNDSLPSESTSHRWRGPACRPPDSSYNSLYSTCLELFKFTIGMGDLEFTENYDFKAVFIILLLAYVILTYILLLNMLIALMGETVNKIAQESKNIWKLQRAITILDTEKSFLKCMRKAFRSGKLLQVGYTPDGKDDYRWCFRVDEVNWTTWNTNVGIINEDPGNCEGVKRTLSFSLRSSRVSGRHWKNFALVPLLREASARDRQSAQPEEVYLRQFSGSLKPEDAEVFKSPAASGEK

Q: `C[Si](C)(C)c1ccc(NC(=O)N2CCN(c3ncccc3Cl)CC2)cc1` [A-01, 4(3-chloropyridin-2-yl)-N-(4-(trimethylsilyl)phenyl)piperazine-1-carboxamide] was tested. Which IC50 did it give?
A: Its IC50 is 0.5 nM.

Q: Which IC50 does the source give for `C[Si](C)(C)c1ccc(NC(=O)c2ccc(-c3ncccc3C(F)(F)F)cc2)cc1` [A-04, 4-(3-(trifluoromethyl)pyridin-2-yl)-N-(4-(trimethylsilyl)phenyl)benzamide] here?
A: Its IC50 is 5.4 nM.

Q: Which IC50 does the source give for `C[Si](C)(C)c1ccc(NC(=O)C2=CCN(c3ncccc3Cl)CC2)cc1` [A-05, 1-(3-chloropyridin-2-yl)-N-(4-(trimethylsilyl)phenyl)-1,2,3,6-tetrahydropyridine-4-carboxamide] here?
A: Its IC50 is 2.3 nM.
